One block for each molecule: values may come before it.
What was measured:
Assay in all cases: radiometric filter-binding kinase assay
[1] = system: PAK2 (human), Q13177 [T402E]
[2] = target: CSNK1D (human) (UniProt P48730)
[3] = target: MAPK9 (human) (UniProt P45984)
[4] = target: TBK1 (human) (UniProt Q9UHD2)
[5] = system: AKT1 (human), P31749 [S473D]
[6] = target: MAPK3 (human) (UniProt P27361)
[7] = target: RPS6KA3 KD1 KD2 (human) (UniProt P51812)
[8] = target: MAP2K2 (human) (UniProt P36507)
[9] = target: MAP3K1 (human) (UniProt Q13233)
[10] = target: MAPK15 (human) (UniProt Q8TD08)
[11] = target: MAP3K5 (human) (UniProt Q99683)
[12] = target: IKBKB (human) (UniProt O14920)
[13] = target: MAPK1 (human) (UniProt P28482)
MAPK1 (human), sequence (P28482 whole entry, looked up): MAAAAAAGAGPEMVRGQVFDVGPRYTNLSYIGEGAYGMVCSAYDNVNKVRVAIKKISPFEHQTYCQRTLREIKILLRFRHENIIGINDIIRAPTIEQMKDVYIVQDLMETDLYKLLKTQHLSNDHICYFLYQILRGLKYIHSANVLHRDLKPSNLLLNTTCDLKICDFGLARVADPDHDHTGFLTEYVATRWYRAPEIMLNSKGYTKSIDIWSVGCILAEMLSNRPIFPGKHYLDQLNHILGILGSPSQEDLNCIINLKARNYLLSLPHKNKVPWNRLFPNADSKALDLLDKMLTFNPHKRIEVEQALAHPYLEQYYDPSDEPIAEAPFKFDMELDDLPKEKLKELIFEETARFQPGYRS

[14] = target: STK11 CAB39 STRADA (human) (UniProt Q9Y376+Q7RTN6+Q15831)
STK11 CAB39 STRADA (human), sequence (Q15831 whole entry, looked up): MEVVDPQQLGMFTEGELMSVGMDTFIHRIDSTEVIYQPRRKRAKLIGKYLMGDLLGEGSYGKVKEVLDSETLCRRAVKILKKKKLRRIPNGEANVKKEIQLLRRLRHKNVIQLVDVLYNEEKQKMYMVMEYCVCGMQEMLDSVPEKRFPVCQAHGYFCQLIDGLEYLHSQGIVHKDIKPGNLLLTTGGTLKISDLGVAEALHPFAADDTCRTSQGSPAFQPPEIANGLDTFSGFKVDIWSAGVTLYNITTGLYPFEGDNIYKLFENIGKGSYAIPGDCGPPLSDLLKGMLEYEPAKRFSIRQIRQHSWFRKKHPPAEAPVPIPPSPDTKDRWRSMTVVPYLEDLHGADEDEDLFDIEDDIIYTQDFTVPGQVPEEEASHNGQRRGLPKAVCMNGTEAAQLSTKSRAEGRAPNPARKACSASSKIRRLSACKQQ
STK11 CAB39 STRADA (human), sequence (Q7RTN6 whole entry, looked up): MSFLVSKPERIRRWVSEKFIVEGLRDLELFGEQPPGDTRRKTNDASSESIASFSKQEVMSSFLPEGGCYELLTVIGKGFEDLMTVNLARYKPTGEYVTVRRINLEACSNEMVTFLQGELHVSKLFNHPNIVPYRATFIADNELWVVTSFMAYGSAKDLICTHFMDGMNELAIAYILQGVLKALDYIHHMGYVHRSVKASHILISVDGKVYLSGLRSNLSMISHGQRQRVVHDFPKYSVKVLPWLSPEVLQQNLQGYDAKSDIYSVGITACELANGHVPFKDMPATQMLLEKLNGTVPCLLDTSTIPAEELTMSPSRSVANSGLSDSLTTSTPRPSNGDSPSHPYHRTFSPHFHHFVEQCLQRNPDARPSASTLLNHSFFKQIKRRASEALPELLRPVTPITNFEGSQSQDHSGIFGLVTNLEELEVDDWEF
STK11 CAB39 STRADA (human), sequence (Q9Y376 whole entry, looked up): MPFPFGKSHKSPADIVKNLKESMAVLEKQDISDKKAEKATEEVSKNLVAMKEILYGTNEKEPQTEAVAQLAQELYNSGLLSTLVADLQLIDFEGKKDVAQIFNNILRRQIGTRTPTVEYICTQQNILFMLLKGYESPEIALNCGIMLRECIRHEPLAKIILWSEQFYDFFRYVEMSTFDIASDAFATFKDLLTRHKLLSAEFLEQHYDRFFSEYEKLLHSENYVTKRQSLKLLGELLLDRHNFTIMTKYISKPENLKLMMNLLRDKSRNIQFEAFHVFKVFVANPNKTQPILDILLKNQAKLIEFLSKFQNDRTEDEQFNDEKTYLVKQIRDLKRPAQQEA

[15] = target: EEF2K (human) (UniProt O00418)
[16] = target: RPS6KA5 KD1 KD2 (human) (UniProt O75582)
[17] = target: HIPK3 (human) (UniProt Q9H422)
[18] = target: SRPK1 (human) (UniProt Q96SB4)
SRPK1 (human), sequence (Q96SB4 whole entry, looked up): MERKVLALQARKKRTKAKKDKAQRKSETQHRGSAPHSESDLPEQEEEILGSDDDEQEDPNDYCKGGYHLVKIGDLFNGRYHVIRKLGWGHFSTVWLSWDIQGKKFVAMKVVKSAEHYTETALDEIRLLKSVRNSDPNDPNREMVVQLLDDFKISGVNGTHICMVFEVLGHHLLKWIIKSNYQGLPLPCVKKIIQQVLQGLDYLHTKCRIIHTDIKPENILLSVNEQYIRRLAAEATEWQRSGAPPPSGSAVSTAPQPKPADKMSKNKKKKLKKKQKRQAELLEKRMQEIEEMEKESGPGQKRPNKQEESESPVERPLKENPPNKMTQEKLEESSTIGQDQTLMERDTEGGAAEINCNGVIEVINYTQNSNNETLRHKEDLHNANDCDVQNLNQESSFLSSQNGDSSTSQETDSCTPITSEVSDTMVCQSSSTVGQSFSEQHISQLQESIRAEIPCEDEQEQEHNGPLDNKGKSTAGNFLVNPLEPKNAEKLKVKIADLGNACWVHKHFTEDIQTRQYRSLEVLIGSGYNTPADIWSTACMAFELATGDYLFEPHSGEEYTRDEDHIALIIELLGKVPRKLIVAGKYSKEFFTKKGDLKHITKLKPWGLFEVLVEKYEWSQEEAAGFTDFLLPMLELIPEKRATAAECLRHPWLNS

[19] = target: HIPK1 (human) (UniProt Q86Z02)
[20] = target: FGFR1 (human) (UniProt P11362)
FGFR1 (human), sequence (P11362 whole entry, looked up): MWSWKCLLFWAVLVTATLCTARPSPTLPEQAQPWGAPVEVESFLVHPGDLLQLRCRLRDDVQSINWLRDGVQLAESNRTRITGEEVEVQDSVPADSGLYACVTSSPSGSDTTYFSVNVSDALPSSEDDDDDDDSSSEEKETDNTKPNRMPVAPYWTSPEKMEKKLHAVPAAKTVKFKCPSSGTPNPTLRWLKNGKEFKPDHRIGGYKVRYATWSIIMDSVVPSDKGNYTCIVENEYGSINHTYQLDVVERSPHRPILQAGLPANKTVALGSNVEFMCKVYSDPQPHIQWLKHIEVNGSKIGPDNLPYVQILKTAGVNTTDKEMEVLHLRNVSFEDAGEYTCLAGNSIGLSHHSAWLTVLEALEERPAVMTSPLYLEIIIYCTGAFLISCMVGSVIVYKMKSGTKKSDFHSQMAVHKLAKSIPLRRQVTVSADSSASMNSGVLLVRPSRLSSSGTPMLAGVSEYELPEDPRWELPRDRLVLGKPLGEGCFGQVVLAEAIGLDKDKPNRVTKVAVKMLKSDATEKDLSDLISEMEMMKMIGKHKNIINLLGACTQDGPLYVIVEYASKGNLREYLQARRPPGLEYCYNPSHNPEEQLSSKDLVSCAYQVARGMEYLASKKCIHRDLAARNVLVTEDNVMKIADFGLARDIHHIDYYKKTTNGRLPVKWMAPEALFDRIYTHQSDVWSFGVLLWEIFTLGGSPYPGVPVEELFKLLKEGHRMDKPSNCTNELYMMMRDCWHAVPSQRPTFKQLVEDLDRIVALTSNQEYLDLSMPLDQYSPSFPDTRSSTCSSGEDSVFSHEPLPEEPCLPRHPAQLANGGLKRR

[21] = target: MKNK2 (human) (UniProt Q9HBH9)
[22] = target: CSK (human) (UniProt P41240)
[23] = target: ERBB4 (human) (UniProt Q15303)
[24] = target: MAPKAPK3 (human) (UniProt Q16644)
[25] = target: PLK1 (human) (UniProt P53350)
[26] = target: BRSK2 (human) (UniProt Q8IWQ3)
BRSK2 (human), sequence (Q8IWQ3 whole entry, looked up): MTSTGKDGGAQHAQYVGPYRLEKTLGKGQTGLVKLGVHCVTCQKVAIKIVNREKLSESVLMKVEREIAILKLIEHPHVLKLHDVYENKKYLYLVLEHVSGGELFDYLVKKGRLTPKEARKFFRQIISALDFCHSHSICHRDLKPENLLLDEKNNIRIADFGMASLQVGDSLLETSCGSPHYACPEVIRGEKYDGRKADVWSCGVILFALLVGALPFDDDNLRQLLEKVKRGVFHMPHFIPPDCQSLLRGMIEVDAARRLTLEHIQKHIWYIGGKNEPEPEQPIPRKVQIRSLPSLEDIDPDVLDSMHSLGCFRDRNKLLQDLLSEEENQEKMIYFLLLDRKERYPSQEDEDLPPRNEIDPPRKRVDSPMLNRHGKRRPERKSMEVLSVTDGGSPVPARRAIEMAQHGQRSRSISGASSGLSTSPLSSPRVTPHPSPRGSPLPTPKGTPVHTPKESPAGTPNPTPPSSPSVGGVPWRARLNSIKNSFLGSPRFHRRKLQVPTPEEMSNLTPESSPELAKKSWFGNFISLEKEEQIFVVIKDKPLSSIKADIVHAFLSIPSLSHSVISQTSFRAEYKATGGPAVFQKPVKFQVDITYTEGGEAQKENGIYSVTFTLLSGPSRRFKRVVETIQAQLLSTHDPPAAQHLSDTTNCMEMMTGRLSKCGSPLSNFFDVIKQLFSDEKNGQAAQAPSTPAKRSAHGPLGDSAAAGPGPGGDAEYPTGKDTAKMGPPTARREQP

[27] = target: PAK7 (human) (UniProt Q9P286)
[28] = target: MAP2K6 (human) (UniProt P52564)
[29] = target: NEK6 (human) (UniProt Q9HC98)
NEK6 (human), sequence (Q9HC98 whole entry, looked up): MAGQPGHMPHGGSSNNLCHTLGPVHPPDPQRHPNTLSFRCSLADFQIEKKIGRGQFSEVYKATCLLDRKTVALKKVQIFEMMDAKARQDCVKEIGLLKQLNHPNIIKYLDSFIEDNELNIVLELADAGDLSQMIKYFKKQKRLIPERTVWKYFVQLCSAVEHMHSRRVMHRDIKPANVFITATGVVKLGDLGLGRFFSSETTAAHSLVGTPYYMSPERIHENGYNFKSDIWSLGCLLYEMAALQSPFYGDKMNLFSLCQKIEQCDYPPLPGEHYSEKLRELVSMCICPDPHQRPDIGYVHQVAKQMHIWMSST

[30] = target: BTK (human) (UniProt Q06187)
[31] = target: BRSK1 (human) (UniProt Q8TDC3)
[32] = target: AURKA (human) (UniProt O14965)
[33] = target: GSK3B (human) (UniProt P49841)
[34] = target: MAPK8 (human) (UniProt P45983)
MAPK8 (human), sequence (P45983 whole entry, looked up): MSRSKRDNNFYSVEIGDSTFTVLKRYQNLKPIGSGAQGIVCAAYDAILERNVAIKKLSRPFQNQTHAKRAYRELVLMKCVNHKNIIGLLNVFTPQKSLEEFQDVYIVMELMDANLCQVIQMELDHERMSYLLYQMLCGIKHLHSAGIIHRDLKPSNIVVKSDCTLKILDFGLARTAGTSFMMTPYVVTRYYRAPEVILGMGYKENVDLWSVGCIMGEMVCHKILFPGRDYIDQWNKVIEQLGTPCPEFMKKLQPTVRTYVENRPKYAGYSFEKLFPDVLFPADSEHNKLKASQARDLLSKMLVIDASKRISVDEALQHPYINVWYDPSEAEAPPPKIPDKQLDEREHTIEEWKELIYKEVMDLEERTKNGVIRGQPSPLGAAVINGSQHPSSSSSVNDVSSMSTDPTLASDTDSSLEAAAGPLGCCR

[35] = target: EPHA4 (human) (UniProt P54764)

CSNK1D (human), sequence (P48730 whole entry, looked up): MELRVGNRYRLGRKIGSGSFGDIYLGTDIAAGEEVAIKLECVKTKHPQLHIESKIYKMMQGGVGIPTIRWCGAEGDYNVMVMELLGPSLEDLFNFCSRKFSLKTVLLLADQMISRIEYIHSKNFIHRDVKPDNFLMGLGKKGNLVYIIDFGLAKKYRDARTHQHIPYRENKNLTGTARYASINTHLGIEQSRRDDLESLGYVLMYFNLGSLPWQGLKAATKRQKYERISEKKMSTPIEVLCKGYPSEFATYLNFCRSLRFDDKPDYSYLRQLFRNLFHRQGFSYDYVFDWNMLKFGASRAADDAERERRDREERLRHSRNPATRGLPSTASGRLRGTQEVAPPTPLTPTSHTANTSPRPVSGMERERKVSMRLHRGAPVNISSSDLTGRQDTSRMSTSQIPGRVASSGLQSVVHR

residual activity ([1]; compound 10.0 µM): 94% | residual activity ([1]; compound 100.0 µM): 63% | residual activity ([2]; compound 10.0 µM): 88% | residual activity ([2]; compound 50.0 µM): 60% | residual activity ([2]; compound 100.0 µM): 88% | residual activity ([3]; compound 10.0 µM): 94% | residual activity ([3]; compound 50.0 µM): 89% | residual activity ([3]; compound 100.0 µM): 88% | residual activity ([4]; compound 10.0 µM): 67% | residual activity ([4]; compound 50.0 µM): 55% | residual activity ([4]; compound 100.0 µM): 29% | residual activity ([5]; compound 10.0 µM): 94% | residual activity ([5]; compound 50.0 µM): 62% | residual activity ([5]; compound 100.0 µM): 78% | residual activity ([6]; compound 10.0 µM): 83% | residual activity ([6]; compound 50.0 µM): 102% | residual activity ([6]; compound 100.0 µM): 63% | residual activity ([7]; compound 10.0 µM): 74% | residual activity ([7]; compound 50.0 µM): 27% | residual activity ([7]; compound 100.0 µM): 13% | residual activity ([8]; compound 10.0 µM): 74% | residual activity ([8]; compound 100.0 µM): 19% | residual activity ([9]; compound 10.0 µM): 26% | residual activity ([9]; compound 100.0 µM): 7% | residual activity ([11]; compound 10.0 µM): 140% | residual activity ([11]; compound 100.0 µM): 250% | residual activity ([12]; compound 10.0 µM): 86% | residual activity ([12]; compound 50.0 µM): 60% | residual activity ([12]; compound 100.0 µM): 39% | residual activity ([13]; compound 10.0 µM): 103% | residual activity ([13]; compound 50.0 µM): 74% | residual activity ([13]; compound 100.0 µM): 49% | residual activity ([14]; compound 10.0 µM): 86% | residual activity ([14]; compound 100.0 µM): 65% | residual activity ([15]; compound 10.0 µM): 89% | residual activity ([15]; compound 50.0 µM): 73% | residual activity ([15]; compound 100.0 µM): 64% | residual activity ([16]; compound 10.0 µM): 69% | residual activity ([16]; compound 50.0 µM): 39% | residual activity ([16]; compound 100.0 µM): 42% | residual activity ([17]; compound 10.0 µM): 97% | residual activity ([17]; compound 50.0 µM): 52% | residual activity ([17]; compound 100.0 µM): 43% | residual activity ([18]; compound 10.0 µM): 107% | residual activity ([18]; compound 50.0 µM): 42% | residual activity ([18]; compound 100.0 µM): 35% | residual activity ([19]; compound 10.0 µM): 74% | residual activity ([19]; compound 100.0 µM): 35% | residual activity ([20]; compound 10.0 µM): 109% | residual activity ([20]; compound 50.0 µM): 95% | residual activity ([20]; compound 100.0 µM): 50% | residual activity ([21]; compound 10.0 µM): 102% | residual activity ([21]; compound 50.0 µM): 80% | residual activity ([21]; compound 100.0 µM): 86% | residual activity ([22]; compound 10.0 µM): 79% | residual activity ([22]; compound 50.0 µM): 46% | residual activity ([22]; compound 100.0 µM): 82% | residual activity ([23]; compound 10.0 µM): 33% | residual activity ([23]; compound 100.0 µM): 8% | residual activity ([24]; compound 10.0 µM): 57% | residual activity ([24]; compound 50.0 µM): 48% | residual activity ([24]; compound 100.0 µM): 8% | residual activity ([25]; compound 10.0 µM): 88% | residual activity ([25]; compound 50.0 µM): 28% | residual activity ([25]; compound 100.0 µM): 25% | residual activity ([26]; compound 10.0 µM): 64% | residual activity ([26]; compound 50.0 µM): 63% | residual activity ([26]; compound 100.0 µM): 28% | residual activity ([27]; compound 10.0 µM): 58% | residual activity ([27]; compound 50.0 µM): 50% | residual activity ([27]; compound 100.0 µM): 39% | residual activity ([28]; compound 10.0 µM): 85% | residual activity ([28]; compound 100.0 µM): 84% | residual activity ([29]; compound 10.0 µM): 104% | residual activity ([29]; compound 50.0 µM): 94% | residual activity ([29]; compound 100.0 µM): 137% | residual activity ([30]; compound 10.0 µM): 52% | residual activity ([30]; compound 100.0 µM): 10% | residual activity ([31]; compound 10.0 µM): 76% | residual activity ([31]; compound 100.0 µM): 51% | residual activity ([32]; compound 10.0 µM): 93% | residual activity ([32]; compound 100.0 µM): 64% | residual activity ([33]; compound 10.0 µM): 80% | residual activity ([33]; compound 50.0 µM): 17% | residual activity ([33]; compound 100.0 µM): 46% | residual activity ([34]; compound 10.0 µM): 99% | residual activity ([34]; compound 50.0 µM): 102% | residual activity ([34]; compound 100.0 µM): 93% | residual activity ([35]; compound 10.0 µM): 93% | residual activity ([35]; compound 100.0 µM): 64%
Structure (SMILES): N#Cc1c(O)c2c(-c3ccc(-c4ccccc4O)cc3)csc2[nH]c1=O
residual activity ([10]; compound 10.0 µM): 81% | residual activity ([10]; compound 50.0 µM): 36% | residual activity ([10]; compound 100.0 µM): 24%

residual activity ([1]; compound 0.01 µM): 87% | residual activity ([1]; compound 0.1 µM): 59% | residual activity ([1]; compound 1.0 µM): 18% | residual activity ([2]; compound 0.01 µM): 89% | residual activity ([2]; compound 0.1 µM): 85% | residual activity ([2]; compound 1.0 µM): 79% | residual activity ([3]; compound 0.01 µM): 103% | residual activity ([3]; compound 0.1 µM): 90% | residual activity ([3]; compound 1.0 µM): 21% | residual activity ([4]; compound 0.01 µM): 101% | residual activity ([4]; compound 0.1 µM): 91% | residual activity ([4]; compound 1.0 µM): 91% | residual activity ([5]; compound 0.01 µM): 98% | residual activity ([5]; compound 0.1 µM): 92% | residual activity ([5]; compound 1.0 µM): 91% | residual activity ([6]; compound 0.01 µM): 104% | residual activity ([6]; compound 0.1 µM): 101% | residual activity ([6]; compound 1.0 µM): 95% | residual activity ([7]; compound 0.01 µM): 100% | residual activity ([7]; compound 0.1 µM): 92% | residual activity ([7]; compound 1.0 µM): 54% | residual activity ([8]; compound 0.01 µM): 101% | residual activity ([8]; compound 0.1 µM): 96% | residual activity ([8]; compound 1.0 µM): 85% | residual activity ([9]; compound 0.01 µM): 94% | residual activity ([11]; compound 0.01 µM): 110% | residual activity ([11]; compound 0.1 µM): 119% | residual activity ([12]; compound 0.01 µM): 83% | residual activity ([12]; compound 0.1 µM): 95% | residual activity ([12]; compound 1.0 µM): 99% | residual activity ([13]; compound 0.01 µM): 103% | residual activity ([13]; compound 0.1 µM): 110% | residual activity ([13]; compound 1.0 µM): 109% | residual activity ([14]; compound 0.01 µM): 108% | residual activity ([14]; compound 0.1 µM): 106% | residual activity ([14]; compound 1.0 µM): 96% | residual activity ([15]; compound 0.1 µM): 108% | residual activity ([15]; compound 1.0 µM): 89% | residual activity ([16]; compound 0.01 µM): 104% | residual activity ([16]; compound 0.1 µM): 105% | residual activity ([17]; compound 0.01 µM): 80% | residual activity ([17]; compound 0.1 µM): 86% | residual activity ([17]; compound 1.0 µM): 74% | residual activity ([18]; compound 0.01 µM): 96% | residual activity ([18]; compound 0.1 µM): 85% | residual activity ([18]; compound 1.0 µM): 90% | residual activity ([19]; compound 0.01 µM): 69% | residual activity ([19]; compound 0.1 µM): 60% | residual activity ([19]; compound 1.0 µM): 56% | residual activity ([20]; compound 0.01 µM): 102% | residual activity ([20]; compound 0.1 µM): 34% | residual activity ([20]; compound 1.0 µM): 2% | residual activity ([21]; compound 0.01 µM): 107% | residual activity ([21]; compound 0.1 µM): 107% | residual activity ([21]; compound 1.0 µM): 102% | residual activity ([22]; compound 0.01 µM): 119% | residual activity ([22]; compound 0.1 µM): 101% | residual activity ([22]; compound 1.0 µM): 38% | residual activity ([23]; compound 0.01 µM): 90% | residual activity ([23]; compound 1.0 µM): 18% | residual activity ([24]; compound 0.01 µM): 96% | residual activity ([24]; compound 0.1 µM): 90% | residual activity ([24]; compound 1.0 µM): 75% | residual activity ([25]; compound 0.01 µM): 98% | residual activity ([25]; compound 0.1 µM): 102% | residual activity ([25]; compound 1.0 µM): 97% | residual activity ([26]; compound 0.1 µM): 97% | residual activity ([26]; compound 1.0 µM): 88% | residual activity ([27]; compound 0.01 µM): 95% | residual activity ([27]; compound 0.1 µM): 91% | residual activity ([27]; compound 1.0 µM): 72% | residual activity ([28]; compound 0.1 µM): 101% | residual activity ([28]; compound 1.0 µM): 92% | residual activity ([29]; compound 0.01 µM): 102% | residual activity ([29]; compound 0.1 µM): 90% | residual activity ([29]; compound 1.0 µM): 91% | residual activity ([30]; compound 0.01 µM): 91% | residual activity ([30]; compound 0.1 µM): 38% | residual activity ([30]; compound 1.0 µM): 21% | residual activity ([31]; compound 0.01 µM): 103% | residual activity ([31]; compound 0.1 µM): 99% | residual activity ([31]; compound 1.0 µM): 86% | residual activity ([32]; compound 0.01 µM): 98% | residual activity ([32]; compound 0.1 µM): 91% | residual activity ([32]; compound 1.0 µM): 70% | residual activity ([33]; compound 1.0 µM): 88% | residual activity ([34]; compound 0.01 µM): 94% | residual activity ([34]; compound 0.1 µM): 107% | residual activity ([34]; compound 1.0 µM): 86% | residual activity ([35]; compound 0.01 µM): 71% | residual activity ([35]; compound 0.1 µM): 12% | residual activity ([35]; compound 1.0 µM): 6%
Structure (SMILES): COc1ccc(N(C(=O)Nc2c(C)cccc2C)c2cc(Nc3ccc(N4CCN(C)CC4)cc3)ncn2)c(OC)c1
residual activity ([10]; compound 0.01 µM): 108% | residual activity ([10]; compound 0.1 µM): 112% | residual activity ([10]; compound 1.0 µM): 94%

From the kinase profiling compilation of Christmann-Franck et al. (2016)
